PubChem BioAssay AID192 (DTP/NCI, 2004)
“And” between values parts separate entries of the source, which are not always exact repeats. Equal values may be shown once. Toxic doses and inconclusive results are not listed. The calls were made as follows: active = survival T/C of 150% or more; inactive = T/C below 125% in these data.

System: BDF1 mice, B16 melanoma ip, median survival T/C
Assay: NCI In Vivo Anticancer Drug Screen. Data for tumor model B16 Melanoma (intraperitoneal) in B6D2F1 (BDF1) mice
Settings: endpoint: median survival time, higher = longer survival
How it was run: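 Survival or tumor size is measured after treatment of tumor-bearing mice and normalised to the vehicle-treated control group.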

[1] = dose: 50.0 mg/kg/injection, schedule: Q01DX009 (ip), vehicle: Klucel (hydroxypropylcellulose) (HPC)
[2] = dose: 100.0 mg/kg/injection, schedule: Q01DX009 (ip), vehicle: Klucel (hydroxypropylcellulose) (HPC)
[3] = dose: 25.0 mg/kg/injection, schedule: Q01DX009 (ip), vehicle: saline
[4] = dose: 50.0 mg/kg/injection, schedule: Q01DX009 (ip), vehicle: saline
[5] = dose: 100.0 mg/kg/injection, schedule: Q01DX009 (ip), vehicle: saline
[6] = dose: 100.0 mg/kg/injection, schedule: Q01DX009 (ip), vehicle: saline with Tween-80
[7] = dose: 200.0 mg/kg/injection, schedule: Q01DX009 (ip), vehicle: saline with Tween-80
[8] = dose: 25.0 mg/kg/injection, schedule: Q01DX009 (ip), vehicle: saline with Tween-80
[9] = dose: 50.0 mg/kg/injection, schedule: Q01DX009 (ip), vehicle: saline with Tween-80
[10] = dose: 6.25 mg/kg/injection, schedule: Q01DX009 (ip), vehicle: saline
[11] = dose: 12.5 mg/kg/injection, schedule: Q01DX009 (ip), vehicle: saline
[12] = dose: 200.0 mg/kg/injection, schedule: Q01DX009 (ip), vehicle: Klucel (hydroxypropylcellulose) (HPC)
[13] = dose: 25.0 mg/kg/injection, schedule: Q01DX009 (ip), vehicle: Klucel (hydroxypropylcellulose) (HPC)

Measured: T/C

CC(=O)OC1CC(O)C23COC(O)C1(C)C2CC(O)C1(C)C3C(=O)C(O)C2(C)C(c3ccoc3)CC3OC321 (stereo unspecified)
inactive: dose: 0.13 mg/kg/injection, schedule: Q01DX009 (ip), vehicle: saline + alcohol 111 % of control | dose: 0.25 mg/kg/injection, schedule: Q01DX009 (ip), vehicle: saline + alcohol 102 % of control | dose: 0.5 mg/kg/injection, schedule: Q01DX009 (ip), vehicle: saline + alcohol 115 % of control | dose: 1.0 mg/kg/injection, schedule: Q01DX009 (ip), vehicle: saline + alcohol 98 % of control

COc1cc2cc(c1Cl)N(C)C(=O)/C=C/C1(C)OC1C(C)C1CC(O)(NC(=O)O1)C(OC)C=C/C=C(\C)C2 (stereo unspecified)
inactive: dose: 1.3 micrograms/kg/injection, schedule: Q01DX009 (ip), vehicle: saline + alcohol 100 % of control | dose: 2.5 micrograms/kg/injection, schedule: Q01DX009 (ip), vehicle: saline + alcohol 97 % of control | dose: 5.0 micrograms/kg/injection, schedule: Q01DX009 (ip), vehicle: saline + alcohol 97 % of control | dose: 10.0 micrograms/kg/injection, schedule: Q01DX009 (ip), vehicle: saline + alcohol 92 % of control

C[C@@]12C(=O)OC(=O)[C@]1(C)[C@H]1CC[C@@H]2O1
inactive: dose: 0.06 mg/kg/injection, schedule: Q01DX009 (ip), vehicle: Klucel (hydroxypropylcellulose) (HPC) 89 % of control | dose: 0.12 mg/kg/injection, schedule: Q01DX009 (ip), vehicle: Klucel (hydroxypropylcellulose) (HPC) 93 % of control | dose: 0.13 mg/kg/injection, schedule: Q01DX009 (ip), vehicle: acetone 103 % of control | dose: 0.25 mg/kg/injection, schedule: Q01DX009 (ip), vehicle: Klucel (hydroxypropylcellulose) (HPC) 90 % of control | dose: 0.25 mg/kg/injection, schedule: Q01DX009 (ip), vehicle: acetone 101 % of control | dose: 0.5 mg/kg/injection, schedule: Q01DX009 (ip), vehicle: Klucel (hydroxypropylcellulose) (HPC) 102 % of control | dose: 0.5 mg/kg/injection, schedule: Q01DX009 (ip), vehicle: acetone 110 % of control | dose: 1.0 mg/kg/injection, schedule: Q01DX009 (ip), vehicle: Klucel (hydroxypropylcellulose) (HPC) 96 % of control

C[C@@H]1CCC[C@@H](NC(=O)N(CCCl)N=O)C1
active: dose: 18.7 mg/kg/injection, schedule: Q01DX009 (ip), vehicle: Klucel (hydroxypropylcellulose) (HPC) 210 % of control | dose: 18.75 mg/kg/injection, schedule: Q01DX009 (ip), vehicle: Klucel (hydroxypropylcellulose) (HPC) 192 % of control
103 % of control and 229 % of control: dose: 37.5 mg/kg/injection, schedule: Q01DX009 (ip), vehicle: Klucel (hydroxypropylcellulose) (HPC)
inactive: dose: 4.7 mg/kg/injection, schedule: Q01DX009 (ip), vehicle: Klucel (hydroxypropylcellulose) (HPC) 103 % of control

OCC1OC(n2cnc3c(=S)nc[nH]c32)CC1O (stereo unspecified)
inactive: [1] 97 % of control | [2] 92 % of control

CN(C)CCC1CCCCN1 (stereo unspecified)
inactive: [3] 112 % of control | [4] 100 % of control | [5] 100 % of control

OCC1OCCO1
inactive: [6] 96 % of control | [7] 93 % of control

CC(C)CCC1(CCBr)C(=O)NC(=Nc2ccccc2)NC1=O (stereo unspecified)
inactive: [8] 86 % of control | [9] 106 % of control | [6] 96 % of control | [7] 96 % of control

CN(C)CCCN1c2ccccc2CCc2ccc(Cl)cc21
inactive: [10] 101 % of control | [11] 108 % of control | [3] 115 % of control | [4] 98 % of control

NC(=O)C(N)=O
inactive: [2] 103 % of control | [12] 96 % of control

CNC(Cc1ccccc1)c1ccccc1 (stereo unspecified)
inactive: [13] 105 % of control | [1] 105 % of control | [2] 113 % of control

CCC(C)(C[NH-])C[NH-].[Cl][Pt+2][Cl]
active: dose: 0.5 mg/kg/injection, schedule: Q01DX009 (ip), vehicle: carboxymethylcellulose (CMC) 159 % of control | dose: 1.0 mg/kg/injection, schedule: Q01DX009 (ip), vehicle: carboxymethylcellulose (CMC) 180 % of control

COc1ccc2nc3cc(Cl)ccc3c(NCCO)c2c1
inactive: dose: 37.5 mg/kg/injection, schedule: Q01DX009 (ip), vehicle: saline with Tween-80 104 % of control | dose: 75.0 mg/kg/injection, schedule: Q01DX009 (ip), vehicle: saline with Tween-80 106 % of control

CC[n+]1ccc(Nc2ccc(NC(=O)c3ccc(C(=O)Nc4ccc(Nc5cc[n+](CC)c(N)n5)cc4)cc3)cc2)nc1N
active: dose: 25.0 mg/kg/injection, schedule: Q01DX009 (ip), vehicle: suspension in saline 162 % of control | dose: 50.0 mg/kg/injection, schedule: Q01DX009 (ip), vehicle: suspension in saline 163 % of control

COc1cc(C(=O)OC(C)CN2CCN(C(=O)c3cc(OC)c(OC)c(OC)c3)CC2)cc(OC)c1OC (stereo unspecified)
inactive: [11] 116 % of control | [3] 105 % of control | [4] 100 % of control | [5] 110 % of control

COc1cc(C(=O)c2cc3c(cc2C)OCO3)cc(OC)c1OC
inactive: dose: 6.25 mg/kg/injection, schedule: Q01DX009 (ip), vehicle: Klucel (hydroxypropylcellulose) (HPC) 105 % of control | dose: 12.5 mg/kg/injection, schedule: Q01DX009 (ip), vehicle: Klucel (hydroxypropylcellulose) (HPC) 97 % of control and 115 % of control | [13] 98 % of control and 103 % of control | [1] 101 % of control and 112 % of control | [2] 109 % of control | [12] 104 % of control

CCN(CC)S(=O)(=O)c1ccc(OC)c(N)c1
inactive: [8] 107 % of control | [9] 100 % of control | dose: 50.0 mg/kg/injection, schedule: Q04DX003 (ip), vehicle: saline with Tween-80 104 % of control | [6] 105 % of control | dose: 100.0 mg/kg/injection, schedule: Q04DX003 (ip), vehicle: saline with Tween-80 104 % of control

O=C1CN=C(c2ccccc2Cl)c2cc(Cl)ccc2N1
inactive: dose: 0.01 mg/kg/injection, schedule: Q01DX009 (ip), vehicle: Klucel (hydroxypropylcellulose) (HPC) 100 % of control | dose: 0.02 mg/kg/injection, schedule: Q01DX009 (ip), vehicle: Klucel (hydroxypropylcellulose) (HPC) 86 % of control | dose: 0.04 mg/kg/injection, schedule: Q01DX009 (ip), vehicle: Klucel (hydroxypropylcellulose) (HPC) 86 % of control | dose: 0.09 mg/kg/injection, schedule: Q01DX009 (ip), vehicle: Klucel (hydroxypropylcellulose) (HPC) 86 % of control | dose: 0.39 mg/kg/injection, schedule: Q01DX009 (ip), vehicle: Klucel (hydroxypropylcellulose) (HPC) 91 % of control | dose: 0.78 mg/kg/injection, schedule: Q01DX009 (ip), vehicle: Klucel (hydroxypropylcellulose) (HPC) 88 % of control | dose: 1.56 mg/kg/injection, schedule: Q01DX009 (ip), vehicle: Klucel (hydroxypropylcellulose) (HPC) 86 % of control | dose: 3.12 mg/kg/injection, schedule: Q01DX009 (ip), vehicle: Klucel (hydroxypropylcellulose) (HPC) 89 % of control | [12] 90 % of control | dose: 0.6 micrograms/kg/injection, schedule: Q01DX009 (ip), vehicle: Klucel (hydroxypropylcellulose) (HPC) 111 % of control | dose: 1.2 micrograms/kg/injection, schedule: Q01DX009 (ip), vehicle: Klucel (hydroxypropylcellulose) (HPC) 104 % of control | dose: 2.5 micrograms/kg/injection, schedule: Q01DX009 (ip), vehicle: Klucel (hydroxypropylcellulose) (HPC) 105 % of control | dose: 5.0 micrograms/kg/injection, schedule: Q01DX009 (ip), vehicle: Klucel (hydroxypropylcellulose) (HPC) 95 % of control | dose: 10.0 micrograms/kg/injection, schedule: Q01DX009 (ip), vehicle: Klucel (hydroxypropylcellulose) (HPC) 112 % of control

NC(=S)N/N=C1/c2cc(Cl)ccc2-c2c(NC(=O)C(Cl)Cl)cc(Cl)cc21
inactive: [6] 95 % of control | [7] 93 % of control | dose: 400.0 mg/kg/injection, schedule: Q01DX009 (ip), vehicle: saline with Tween-80 86 % of control

COc1nc(=O)n(C2C=CC(=O)O2)cc1F (stereo unspecified)
inactive: [10] 101 % of control | [11] 95 % of control | [3] 89 % of control | [4] 87 % of control | [5] 91 % of control

O=C(SCC(NSc1ccccc1[N+](=O)[O-])C(=O)O)c1ccccc1 (stereo unspecified)
inactive: dose: 50.0 mg/kg/injection, schedule: Q04DX003 (ip), vehicle: Klucel (hydroxypropylcellulose) (HPC) 113 % of control | dose: 100.0 mg/kg/injection, schedule: Q04DX003 (ip), vehicle: Klucel (hydroxypropylcellulose) (HPC) 100 % of control | dose: 200.0 mg/kg/injection, schedule: Q04DX003 (ip), vehicle: Klucel (hydroxypropylcellulose) (HPC) 94 % of control

CCCCNCC1COc2cccc(OCC)c2O1 (stereo unspecified)
inactive: dose: 3.12 mg/kg/injection, schedule: Q01DX009 (ip), vehicle: saline 120 % of control | [10] 95 % of control | [11] 97 % of control | [3] 105 % of control | [4] 100 % of control
